≈ marks a conversion by molar mass, not a printed value. Where a name gives a salt, the structure may show the parent alone.
Assay: Solubility of the active ingredient in water at room temperature
Type: physicochemical
Protocol: Further, unless specified otherwise, any measured provisions such as densities, solubulities, or the like, are understood to be measured at room temperature (i.e., 20±5° C. as defined by the European Pharmacopoeia or by the WHO guidance ‘Guidelines for the Storage of Essential Medicines and Other Health Commodities’ (2003)).

solubility | solubility in water at room temperature | Molecule
2000 µg/mL (≈ 8.61 mM) |  | COc1ccc2[nH]cc(CCNC(C)=O)c2c1 [melatonin]
 | 12500 µg/mL | vitamin B12 [Vit. B12]
≥ 100000 µg/mL |  | CNC[C@H](O)c1cccc(O)c1 [phenylephrine HCl]

Source: US20260060928A1, “TALC-FREE ACTIVE INGREDIENT COATING” (Hermes Pharma GmbH, priority 2022, published 2026)
